Test results: patent publication US10457709B2, “Antimicrobial peptides, their variants and uses” (priority 2015, dated 2019)
Square brackets hold non-standard residues; d marks the D form. Ends that are not written are not given here. Peptide text beside a SMILES is read from it.

How the values were obtained:
S. aureus COL (MRSA) = assay type: cell-based, Staphylococcus aureus
Procedure: (§1) Minimum inhibition concentrations (MICs) were determined against Escherichia coli (ATCC 25922), Staphylococcus aureus (ATCC 25923), Klebsiella pneumoniae (ATCC 10031) and Pseudomonas aeruginosa (ATCC 27853). Also clinical strains of E. coli, K. pneumoniae, E. cloacae, P. aeruginosa, Serratia marcescens, Proteus mirabilis, S. pneumoniae, Acinetobacter baumannii, A. johnsonii and S. aureus were used for MICs assays. Additionally, clinical strains of yeast including Candida albicans, C. glabrata, C. parapsilosis and C. quillermondiae were used. The susceptibility of these microorganisms to Chain peptides were determined using micro broth dilution assay. Colonies of the respective microorganism from Muller Hinton (MH) agar plates incubated overnight were suspended in MH broth media and final concentration of microorganism was adjusted to 5.0×10^5 cfu/ml. An aliquot of 10 μl of each Chain peptide, or gentamicin, tetracycline as reference antibiotics were added in differing concentrations along with 90 μl of bacterial suspension to 96 well polypropylene plates and incubated at 37° C. for 20 to 24 hours. Concentrations of Chain peptides and reference antibiotics ranged from 0.125 to 128 μg/ml and the MICs were recorded as the lowest concentration with no visual growth of bacteria. Similarly, antifungal MICs were tested in Potato dextrose broth.
(§2) Peptides Chain 104, Chain 105, Chain 201, Chain 308, Chain 310 were tested against antibiotic-sensitive strains of S. aureus RN4220 and methicillin resistant strains of S. aureus COL (MRSA). Chain peptides comprising of either L- or D-form amino acids were tested against these bacteria, and the D-form peptides were found have better activity compared to L-form (Table 6). Synergistic activity of chain peptides along with Ertapenem (4 μg/ml) was tested to know whether it will influence the activity against MRSA strains. […] Chain 310 has the best antibacterial activity against the MRSA strains with a MIC of 0.06 & 0.03 μg/ml along with Ertapenem (4 μg/ml) for both forms of L and D-peptides (Table 6).

S. aureus RN4220 = assay type: cell-based, Staphylococcus aureus; conditions: antibiotic sensitive strain S. aureus RN4220
Procedure: as §1, §2

[1] = test system: MRSA strains (S. aureus COL); assay: MIC, synergistic activity with Ertapenem (4 μg/ml); assay type: cell-based, Staphylococcus aureus; conditions: S. aureus COL, synergistic activity with 4 μg/ml Ertapenem
Procedure: as §1, §2

[2] = test system: Escherichia coli (ATCC 25922); assay: microbe, parasite or virus in culture; assay type: cell-based; conditions: ATCC 25922
Procedure: as §1

[3] = test system: Klebsiella pneumoniae (ATCC 10031); assay: microbe, parasite or virus in culture; assay type: cell-based; conditions: ATCC 10031
Procedure: as §1

[4] = test system: Pseudomonas aeruginosa (ATCC 27853); assay: microbe, parasite or virus in culture; assay type: cell-based; conditions: ATCC 27853
Procedure: as §1

[5] = test system: Staphylococcus aureus (ATCC 25923); assay: microbe, parasite or virus in culture; assay type: cell-based; conditions: ATCC 25923
Procedure: as §1

human erythrocytes = assay type: cell-based
Procedure: In hemolysis assays, the ability of peptides at 128 μg/ml concentration to lyse human erythrocytes to release hemoglobin was measured. The peptides described here preferably have low hemolytic activity (0.2 to 3.8% hemolysis) in mammal body. […] These peptides are useful as antimicrobial drugs as they show little or no side effects at concentrations needed to kill bacteria.
Minimum inhibition concentrations (MICs) were tested by microbroth dilution method and Chain 104, 105 and 109 inhibited the growth of Escherichia coli (ATCC 25922), Staphylococcus aureus (ATCC 25923), Klebsiella pneumoniae (ATCC 10031) and Pseudomonas aeruginosa (ATCC 27853) between 1-8 μg/ml respectively (Tables 3a, 3b and 3c). The membranolytic activities of the peptides were tested by measuring the release of hemoglobin from erythrocytes of fresh blood donated by voluntiers. Hemoglobin levels were determined spectrometrically by taking OD at 540 nm by following the protocol of Schmidtchen et al., 2011.

[6] = up to 45° C. for over 14 days; radial diffusion assay
Procedure: FIG. 8a. […] Antibacterial activity was tested by aliquoting 20 μg of peptides incubated at different temperature and activity was measured by zone of inhibition. Peptides at −20° C. served as control.
FIG. 8b. Thermostability of the chain peptides 201 (A-D) and 204 (E-H) tested at various temperatures over a period of 14 days by radial diffusion assay. Antibacterial activity was tested by aliquoting 20 μg of peptides incubated at different temperature and activity was measured by zone of inhibition. Peptides at −20° C. served as control.
FIG. 8c. Thermostability of the chain peptides 306 (A-D) and 308 (E-H) tested at various temperatures over a period of 14 days by radial diffusion assay. Antibacterial activity was tested by aliquoting 20 μg of peptides incubated at different temperature and activity was measured by zone of inhibition. Peptides at −20° C. served as control.
(§3) Thermal stability was evaluated by diluting peptides to the concentration of 2 mg/ml in PBS buffer (pH 7.4) and incubating at different temperatures, such as +4° C., 25° C. (RT), 37° C. and 45° C., peptides stored at −20° C. were used as control. After each time interval, 100 μl (2 mg/ml) of peptides were taken and stored at −20° C. for radial diffusion assay to determine the antibacterial activity (FIG. 8). Peptides were also tested by diluting them at different pH values starting from pH 4 to 9. The effect of NaCl on the antimicrobial activity was tested by adding different concentrations (50, 100 and 200 mM) of NaCl to MH medium and the minimum inhibitory concentrations were tested against 4 ATCC bacterial strains.

[7] = pH 4 to 9; radial diffusion assay
Procedure: FIG. 9a. pH stability of chain peptides 104 and 105 was determined by radial diffusion assay (RDA). Different pH ranging from 4-9 was used to check the zone of inhibition.
FIG. 9b. pH stability of chain peptides 201 and 204 was determined by radial diffusion assay (RDA). Different pH ranging from 4-9 was used to check the zone of inhibition.
FIG. 9c. pH stability of chain peptides 306 and 308 was determined by radial diffusion assay (RDA). Different pH ranging from 4-9 was used to check the zone of inhibition.
as §3

| Compound | Minimum inhibitory concentration (MIC), S. aureus COL (MRSA) (S. aureus COL (MRSA)) [µg/mL] | Minimum inhibitory concentration (MIC), S. aureus RN4220 (S. aureus RN4220) [µg/mL] | Minimum inhibitory concentration (MIC), S. aureus COL + 4 μg/ml Ertapenem [1] [µg/mL] | Minimum inhibitory concentration, Escherichia coli (ATCC 25922) [2] [µg/mL] | Minimum inhibitory concentration, Klebsiella pneumoniae (ATCC 10031) [3] [µg/mL] | Minimum inhibitory concentration, Pseudomonas aeruginosa (ATCC 27853) [4] [µg/mL] | Minimum inhibitory concentration, Staphylococcus aureus (ATCC 25923) [5] [µg/mL] | Side effects to humans as tested by hemolysis assay (human erythrocytes) | Thermostability (antibacterial activity retained) [6] | pH stability (antibacterial activity retained) [7] |
| --- | --- | --- | --- | --- | --- | --- | --- | --- | --- | --- |
| CC(C)C[C@@H](NC(=O)[C@H](N)CCCNC(=N)N)C(=O)N[C@H](CCCCN)C(=O)N[C@H](Cc1c[nH]c2ccccc12)C(=O)N[C@H](Cc1ccccc1)C(=O)N[C@H](CC(C)C)C(=O)N[C@H](CC(C)C)C(=O)N[C@H](Cc1ccccc1)C(=O)N[C@H](CCCNC(=N)N)C(=O)N[C@H](CCCCN)C(=O)N[C@H](CCCNC(=N)N)C(=O)O [308 D] (H-[dR][dL][dK][dW][dF][dL][dL][dF][dR][dK][dR]-OH) | 4 | 4 | 1 | – | – | – | – | – | – | – |
| CC(C)C[C@@H](NC(=O)[C@@H](CCCCN)NC(=O)[C@@H](CCCCN)NC(=O)[C@@H](Cc1ccccc1)NC(=O)[C@@H](CC(C)C)NC(=O)[C@@H](Cc1c[nH]c2ccccc12)NC(=O)[C@@H](CCCNC(=N)N)NC(=O)[C@@H](Cc1c[nH]c2ccccc12)NC(=O)[C@@H](CCCCN)NC(=O)[C@@H](CCCNC(=N)N)NC(=O)[C@H](N)CCCCN)C(=O)O [310 D] (H-[dK][dR][dK][dW][dR][dW][dL][dF][dK][dK][dL]-OH) | >64 | >64 | <0.03 | – | – | – | – | – | – | – |
| KRKWRWLFKKL [Chain310] | – | – | – | 4 | 16 | 1 | 8 | little side effects | – | – |
| KRKWRWLFKKL [Compound 310] | >64 | >64 | 0.06 | – | – | – | – | – | – | – |
| KWIVWRWRFKR [Chain201] | – | – | – | 2 | 8 | 8 | 4 | little side effects | not hindered | not hindered |
| KWIVWRWRFKR [Compound 201] | 64 | 64 | 0.5 | – | – | – | – | – | – | – |
| RKWRAMIRLHAKRLRK [Chain104] | – | – | – | – | – | – | – | little side effects | not hindered | not hindered |
| RKWRAMIRLHAKRLRK [Compound 104] | >64 | >64 | 0.25 | – | – | – | – | – | – | – |
| RKWRAMIRLHAKWLRK [Chain105] | – | – | – | – | – | – | – | little side effects | not hindered | not hindered |
| RKWRAMIRLHAKWLRK [Compound 105] | >64 | >64 | 0.5 | – | – | – | – | – | – | – |
| RLKRWRLFRKR [Chain306] | – | – | – | 8 | >128 | 64 | 2 | – | not hindered | not hindered |
| RLKWFLLFRKR [Chain308] | – | – | – | 1 | 4 | 2 | 4 | little side effects | not hindered | not hindered |
| RLKWFLLFRKR [Compound 308] | >64 | >64 | 0.5 | – | – | – | – | – | – | – |
| RLKWFWLFRKR [Chain307] | – | – | – | 8 | 16 | 1 | 4 | little side effects | – | – |
| RRLIWRRFKWLR [Chain204] | – | – | – | 2 | 32 | 4 | 16 | little side effects | not hindered | not hindered |
| WWRLHAKWKLW [Chain109] | – | – | – | – | – | – | – | little side effects | – | – |
